From US8008304B2, “Substituted propiolic acid amides and their use for producing drugs” (Grüenthal GmbH, priority 2005, dated 2011)
pIC50: −log10 of the molar value. Counter-ions that a name gives are not always drawn.

Biological target: T1, mGluR5 receptor (Sus scrofa, UniProt I3LUI7)
T1 construct: from tissue; host or cells: pig brain halves without medulla, cerebellum and pons
Experiment: Inhibition of [3H]-MPEP bond in the mGluR5 receptor bond assay (pig brain homogenate)
Format: binding
Conditions: 450 μg protein from pig brain homogenate, 5 nM [3H]-MPEP, 60 min, room temperature
Protocol: Substituted propiolic acid amides of the above-mentioned general formula I are likewise particularly preferred, which, after 60 minutes of incubation in 450 μg protein from pig brain homogenate at a temperature between 20° C. and 25° C. in a concentration of less than 2000 nM, preferably of less than 1000 nM, particularly preferably of less than 700 nM, very particularly preferably of less than 100 nM, even more preferably of less than 30 nM, bring about a 50-percent displacement of [^3H]-2-methyl-6-(3-methoxyphenyl)-ethynylpyridine which is present in a concentration of 5 nM.
Thereby, the determination of the displacement of [^3H]-2-methyl-6-(3-methoxyphenyl)-ethynylpyridine is performed as described in the section Pharmacological Methods, I. Method for determining the inhibition of [^3H]-MPEP-bonding in the mGluR5 receptor bonding assay.
I. Method for Determining the Inhibition of the [^3H]-MPEP Bond in the mGluR5 Receptor Bond Assay
Pig brain homogenate is produced by homogenisation (Polytron PT 3000, Kinematica AG, 10,000 rpm for 90 seconds) of pig brain halves without medulla, cerebellum and pons in buffer pH 8.0 (30 mM Hepes, Sigma, order no. H3375+1 tablet complete to 100 ml, Roche Diagnostics, order no. 1836145) in ratio 1:20 (brain weight/volume) and differential centrifugation at 900×g and 40,000×g. In each case, 450 μg protein from brain homogenate is incubated with 5 nM ^3[H]-MPEP (Tocris, order no. R1212) (MPEP=2-methyl-6-(3-methoxyphenyl)-ethynylpyridine) in 250 μl incubation batches in 96 well microtitration plates and the compounds to be tested (10 μM in the test) in buffer (as above) at room temperature for 60 min.
Thereafter, the batches are filtered with the help of a Brandel Cell Harvester (Brandel, TYP Robotic 9600) on unifilter plates with glass fibre filter mats (Perkin Elmer, order no. 6005177) and subsequently washed with buffer (as above) 3 times with in each case 250 μl per sample. The filter plates are subsequently dried for 60 min at 55° C. 30 μL Ultima Gold™ scintillator is subsequently added per well (Packard BioScience, order no. 6013159) and the samples are measured after 3 hours on the β-counter (Mikrobeta, Perkin Elmer). The unspecific bond is determined by addition of 10 μM MPEP (Tocris, order no. 1212).

T1 sequence (I3LUI7 19-1212): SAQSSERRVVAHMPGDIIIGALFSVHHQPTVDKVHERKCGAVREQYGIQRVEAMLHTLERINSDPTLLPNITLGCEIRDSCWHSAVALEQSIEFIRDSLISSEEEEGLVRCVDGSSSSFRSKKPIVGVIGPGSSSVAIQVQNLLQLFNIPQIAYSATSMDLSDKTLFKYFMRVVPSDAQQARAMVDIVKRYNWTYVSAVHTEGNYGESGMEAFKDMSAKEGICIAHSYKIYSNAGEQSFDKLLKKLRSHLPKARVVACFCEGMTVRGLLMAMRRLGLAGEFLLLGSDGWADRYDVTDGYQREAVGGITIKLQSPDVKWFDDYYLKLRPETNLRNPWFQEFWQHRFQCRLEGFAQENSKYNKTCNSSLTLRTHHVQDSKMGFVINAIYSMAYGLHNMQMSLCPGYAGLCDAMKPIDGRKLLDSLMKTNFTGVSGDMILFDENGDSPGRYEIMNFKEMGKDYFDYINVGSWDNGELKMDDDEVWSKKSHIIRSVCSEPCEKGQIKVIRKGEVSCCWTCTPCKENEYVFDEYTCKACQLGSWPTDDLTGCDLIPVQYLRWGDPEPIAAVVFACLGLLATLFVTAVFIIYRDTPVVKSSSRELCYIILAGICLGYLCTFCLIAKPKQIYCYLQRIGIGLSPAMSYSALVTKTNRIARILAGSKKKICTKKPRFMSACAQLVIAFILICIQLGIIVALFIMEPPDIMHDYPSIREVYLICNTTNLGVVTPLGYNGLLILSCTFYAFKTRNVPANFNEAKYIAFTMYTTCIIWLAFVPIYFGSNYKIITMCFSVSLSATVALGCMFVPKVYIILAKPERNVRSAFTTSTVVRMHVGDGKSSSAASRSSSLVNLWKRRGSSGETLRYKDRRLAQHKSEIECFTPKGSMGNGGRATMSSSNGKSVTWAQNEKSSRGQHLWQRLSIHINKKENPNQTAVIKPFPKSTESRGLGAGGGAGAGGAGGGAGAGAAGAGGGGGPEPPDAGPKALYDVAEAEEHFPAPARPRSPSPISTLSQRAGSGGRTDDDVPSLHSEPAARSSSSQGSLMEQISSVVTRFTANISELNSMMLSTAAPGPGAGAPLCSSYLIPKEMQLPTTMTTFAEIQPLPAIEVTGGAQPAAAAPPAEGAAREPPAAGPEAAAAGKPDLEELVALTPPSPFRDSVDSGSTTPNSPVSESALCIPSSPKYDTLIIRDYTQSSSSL

pIC50 | SMILES
7.57 | CC1CN(c2nncs2)CCN1C(=O)C#Cc1cccc(Cl)c1 (stereo not drawn) [Example 5, 2-methyl 1-(3-(3-chloro-phenyl)-propiolyl)-4-(1,3,4-thiadiazol-2-yl)-piperazine]
7.68 | CN(CCNC(=O)C#Cc1cccc(Cl)c1)c1nncs1 [Example 6, 3-(3-chlorophenyl)-N-(2-(methyl(1,3,4-thiadiazol-2-yl)amino)ethyl)propiolamide]
9.30 | CN(CCNC(=O)C#Cc1cccc(Cl)c1)c1cncs1 [Example 7, 3-(3-chlorophenyl)-N-(2-(methyl(thiazol-5-yl)amino)ethyl)propiolamide]
6.46 | CN(CCNC(=O)C#Cc1cccc(Cl)c1)c1nccn1C [Example 8, 3-(3-chlorophenyl)-N-(2-(methyl(1-methyl-1H-imidazol-2-yl)amino)ethyl)propiolamide]

The next lines start with the compound.

SMILES | pIC50
O=C(C#Cc1ccccc1)N1CCN(c2ccsc2)CC1 [Example 1, 1-(3-phenyl-propiolyl)-4-(thiophene-3-yl)-piperazine hydrochloride] | 5.72
O=C(C#Cc1ccccc1)N1CCN(c2cscn2)CC1 [Example 2, 1-(3-Phenyl-propiolyl)-4-(thiazol-4-yl)-piperazine] | 6.20
Cn1ccnc1N1CCN(C(=O)C#Cc2ccccc2)CC1 [Example 3, 1-(3-phenyl-propiolyl)-4-(1-methyl-imidazol-2-yl)-piperazine hydrochloride] | 5.32
C[C@@H]1CN(c2cscn2)CCN1C(=O)C#Cc1cccc(Cl)c1 [Example 4, (R)-2-methyl-1-(3-(3-chloro-phenyl)-propiolyl)-4-(thiazol-4-yl)-piperazine] | 7.80

System: not listed separately
Experiment: Formaline test in rats (phase 2, chronic pain component)
Format: in vivo
Conditions: phase 2 (21 to 27 min after formaline injection)
Protocol: III. Formaline Test in Rats: The formaline test (Dubuisson, D. and Dennis, S. G., 1977, Pain, 4, 161-174) represents a model for acute and chronic pain. A biphasic nociceptive reaction, which is recorded by observation of three clearly differentiable behavioural patterns, is induced by a single formaline injection into the dorsal side of a rear paw in freely mobile test animals. The reaction has two phases: Phase 1=Immediate reaction (duration up to 10 min; paw shaking, licking), Phase 2=Late reaction (after a rest phase; likewise, paw shaking, licking; duration up to 60 min). The 1st phase reflects a direct stimulation of the peripheral nocisensors with high spinal nociceptive input or glutamate release (acute pain phase); the 2nd phase reflects a spinal and peripheral hypersensitisation (chronic pain phase). In the investigations presented here, the chronic pain component (phase 2) was evaluated. Formaline with a volume of 50 μl and a concentration of 5% is administered subcutaneously into the dorsal side of the right rear paw of each animal. The substances to be tested are administered for 30 min before the formaline injection orally (p.o.), intravenously (i.v.) or intraperitoneally (i.p.). […]

SMILES | Formaline test (rat) i.v. Reduction in nociceptive behaviour over control at 10 mg/kg [%]
C[C@@H]1CN(c2cscn2)CCN1C(=O)C#Cc1cccc(Cl)c1 [Example 4, (R)-2-methyl-1-(3-(3-chloro-phenyl)-propiolyl)-4-(thiazol-4-yl)-piperazine] | 75
